Data published in patent US8846933B2, “N-link hydroxamic acid derivatives useful as antibacterial agents” (Pfizer Inc., priority 2009, dated 2014).

Key:
[1] = system: Escherichia coli EC-1: VOGEL, mouse virulent; assay: MIC determination (CLSI), strain EC-1; assay type: cell-based; conditions: strain EC-1, unit assumed
Summary of the method: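 The mouse-virulent VOGEL isolate of E. coli, EC-1, served as test organism. Minimum inhibitory concentration was measured by CLSI dilution methodology (M7-A7; M100-S18 standards).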

[2] = system: Pseudomonas aeruginosa UI-18: Wild-type (PA-7); assay: MIC determination (CLSI), strain PA-7; assay type: cell-based; conditions: strain PA-7, unit assumed
Summary of the method: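 MIC determined by broth dilution per CLSI M7-A7 guidelines with M100-S18 interpretive standards. Test organism: wild-type Pseudomonas aeruginosa UI-18, designated PA-7.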

[3] = generated in the same manner as in Table 4

Compound: CCCn1cc(-c2ccn(CCC(C)(C(=O)NO)S(C)(=O)=O)c(=O)c2)cn1 (stereo not drawn) [Example 152, N-hydroxy-2-methyl-2-(methylsulfonyl)-4-[2-oxo-4-(1-propyl-1H-pyrazol-4-yl)pyridin-1(2H)-yl]butanamide]
- EC-1 (MIC) [1, 3]: > 64 µg/mL
- PA-7 (MIC) [2, 3]: > 64 µg/mL

Compound: CN1CCN(CCCOc2ccc(-c3ccn(CCC(C)(C(=O)NO)S(C)(=O)=O)c(=O)c3)cc2)CC1 (stereo not drawn) [Example 87]
- EC-1 (MIC) [1, 3]: 64 µg/mL
- PA-7 (MIC) [2, 3]: 32 µg/mL

Compound: Cc1cc(SCC#N)ccc1-c1ccn(CC[C@](C)(C(=O)NO)S(C)(=O)=O)c(=O)c1 [Example 356, (2R)-4-[4-{4-[(cyanomethyl)thio]-2-methylphenyl}-2-oxopyridin-1(2H)-yl]-N-hydroxy-2-methyl-2-(methylsulfonyl)butanamide]
- EC-1 (MIC) [1]: 16 µg/mL
- PA-7 (MIC) [2]: 4 µg/mL

Compound: Cc1c(-c2ccc(C#N)cc2)ccn(CC[C@](C)(C(=O)NO)S(C)(=O)=O)c1=O [Example 398, (2R)-4-[4-(4-cyanophenyl)-3-methyl-2-oxopyridin-1(2H)-yl]-N-hydroxy-2-methyl-2-(methylsulfonyl)butanamide]
- EC-1 (MIC) [1]: 4 µg/mL
- PA-7 (MIC) [2]: 2 µg/mL

Compound: COc1ccc(-c2ccn(CC[C@](C)(C(=O)NO)S(C)(=O)=O)c(=O)c2)c(C)c1 [Example 345, (2R)-N-hydroxy-4-[4-(4-methoxy-2-methylphenyl)-2-oxopyridin-1(2H)-yl]-2-methyl-2-(methylsulfonyl)butanamide]
- EC-1 (MIC) [1]: 4 µg/mL
- PA-7 (MIC) [2]: 4 µg/mL

Compound: CC(CCn1ccc(-c2ccc(OCCCN3CCOCC3)cc2)cc1=O)(C(=O)NO)S(C)(=O)=O (stereo not drawn) [Example 71, N-hydroxy-2-methyl-2-(methylsulfonyl)-4-{4-[4-(3-morpholin-4-ylpropoxy)phenyl]-2-oxopyridin-1(2H)-yl}butanamide]
- EC-1 (MIC) [1, 3]: 2 µg/mL
- PA-7 (MIC) [2, 3]: 4 µg/mL

Compound: CN1Cc2cc(-c3ccn(CCC(C)(C(=O)NO)S(C)(=O)=O)c(=O)c3)ccc2C1=O (stereo not drawn) [Example 179, N-hydroxy-2-methyl-4-[4-(2-methyl-1-oxo-2,3-dihydro-1H-isoindol-5-yl)-2-oxopyridin-1(2H)-yl]-2-(methylsulfonyl)butanamide]
- EC-1 (MIC) [1, 3]: > 64 µg/mL
- PA-7 (MIC) [2, 3]: > 64 µg/mL

Compound: C/C(=N\O)c1ccc(-c2ccn(CCC(C)(C(=O)NO)S(C)(=O)=O)c(=O)c2)cc1 (stereo not drawn) [Example 80, N-hydroxy-4-[4-{4-[(1E)-N-hydroxyethanimidoyl]phenyl}-2-oxopyridin-1(2H)-yl]-2-methyl-2-(methylsulfonyl)butanamide]
- EC-1 (MIC) [1, 3]: 8 µg/mL
- PA-7 (MIC) [2, 3]: 32 µg/mL

Compound: COc1ccc(-c2ccn(CC[C@](C)(C(=O)NO)S(C)(=O)=O)c(=O)c2)cn1 [Example 285, (2R)-N-hydroxy-4-(6-methoxy-2′-oxo-3,4′-bipyridin-1′(2′H)-yl)-2-methyl-2-(methylsulfonyl)butanamide]
- EC-1 (MIC) [1]: 4 µg/mL
- PA-7 (MIC) [2]: 4 µg/mL

Compound: Cc1ccc2cc(-c3ccn(CCC(C)(C(=O)NO)S(C)(=O)=O)c(=O)c3)ccc2n1 (stereo not drawn) [Example 300, N-hydroxy-2-methyl-4-[4-(2-methylquinolin-6-yl)-2-oxopyridin-1(2H)-yl]-2-(methylsulfonyl)butanamide]
- EC-1 (MIC) [1]: 4 µg/mL
- PA-7 (MIC) [2]: 8 µg/mL

Compound: CC(CCn1ccc(-c2ccc(OCCO)c(F)c2)cc1=O)(C(=O)NO)S(C)(=O)=O (stereo not drawn) [Example 76, 4-{4-[3-fluoro-4-(2-hydroxyethoxy)phenyl]-2-oxopyridin-1(2H)-yl}-N-hydroxy-2-methyl-2-(methylsulfonyl)butanamide]
- EC-1 (MIC) [1, 3]: 16 µg/mL
- PA-7 (MIC) [2, 3]: 32 µg/mL

Compound: CC(CCn1ccc(-c2ccc(F)c(Cl)c2)cc1=O)(C(=O)NO)S(C)(=O)=O (stereo not drawn) [Example 214]
- EC-1 (MIC) [1]: 1 µg/mL
- PA-7 (MIC) [2]: 2 µg/mL

Compound: CC1(O)CCC(Oc2ccc(-c3ccn(CC[C@](C)(C(=O)NO)S(C)(=O)=O)c(=O)c3)c(F)c2)CC1 (stereo partly drawn) [Example 326, (2R)-4-[4-{2-fluoro-4-[(4-hydroxy-4-methylcyclohexyl)oxy]phenyl}-2-oxopyridin-1(2H)-yl]-N-hydroxy-2-methyl-2-(methylsulfonyl)butanamide]
- EC-1 (MIC) [1]: 0.5 µg/mL
- PA-7 (MIC) [2]: 4 µg/mL

Compound: C[C@@](CCn1ccc(-c2cc(F)ccc2Cl)cc1=O)(C(=O)NO)S(C)(=O)=O [Example 392, (2R)-4-[4-(2-chloro-5-fluorophenyl)-2-oxopyridin-1(2H)-yl]-N-hydroxy-2-methyl-2-(methylsulfonyl)butanamide]
- EC-1 (MIC) [1]: 16 µg/mL
- PA-7 (MIC) [2]: 8 µg/mL

Compound: Cc1c(-c2ccc(C#N)cc2F)ccn(CC[C@](C)(C(=O)NO)S(C)(=O)=O)c1=O [Example 412, (2R)-4-[4-(4-cyano-2-fluorophenyl)-3-methyl-2-oxopyridin-1(2H)-yl]-N-hydroxy-2-methyl-2-(methylsulfonyl)butanamide]
- EC-1 (MIC) [1]: 8 µg/mL
- PA-7 (MIC) [2]: 4 µg/mL

Compound: CC(CCn1ccc(-c2ccc(OCCCN3CCOCC3)cc2Cl)cc1=O)(C(=O)NO)S(C)(=O)=O (stereo not drawn) [Example 225, 4-{4-[2-chloro-4-(3-morpholin-4-ylpropoxy)phenyl]-2-oxopyridin-1(2H)-yl}-N-hydroxy-2-methyl-2-(methylsulfonyl)butanamide]
- EC-1 (MIC) [1]: 8 µg/mL
- PA-7 (MIC) [2]: 16 µg/mL

Compound: COc1ccc(-c2ccc(-c3ccn(CC[C@](C)(C(=O)NO)S(C)(=O)=O)c(=O)c3)cc2)cn1 [Example 310, (2R)-N-hydroxy-4-{4-[4-(6-methoxypyridin-3-yl)phenyl]-2-oxopyridin-1(2H)-yl}-2-methyl-2-(methylsulfonyl)butanamide]
- EC-1 (MIC) [1]: 0.125 µg/mL
- PA-7 (MIC) [2]: 0.5 µg/mL

Compound: Cc1cccc(-c2ccn(CCC(C)(C(=O)NO)S(C)(=O)=O)c(=O)c2)c1F (stereo not drawn) [Example 264, 4-[4-(2-fluoro-3-methylphenyl)-2-oxopyridin-1(2H)-yl]-N-hydroxy-2-methyl-2-(methylsulfonyl)butanamide]
- EC-1 (MIC) [1]: 0.5 µg/mL
- PA-7 (MIC) [2]: 0.5 µg/mL

Compound: C[C@@](CCn1ccc(-c2ccc(Oc3ccccc3C#N)cc2)cc1=O)(C(=O)NO)S(C)(=O)=O [Example 426, (2R)-4-{4-[4-(2-cyanophenoxy)phenyl]-2-oxopyridin-1(2H)-yl}-N-hydroxy-2-methyl-2-(methylsulfonyl)butanamide]
- EC-1 (MIC) [1]: 0.25 µg/mL
- PA-7 (MIC) [2]: 1 µg/mL

Compound: CC(CCn1ccc(-c2ccc3cc(OCCO)ccc3c2)cc1=O)(C(=O)NO)S(C)(=O)=O (stereo not drawn) [Example 273, N-hydroxy-4-{4-[6-(2-hydroxyethoxy)-2-naphthyl]-2-oxopyridin-1(2H)-yl}-2-methyl-2-(methylsulfonyl)butanamide]
- EC-1 (MIC) [1]: 0.5 µg/mL
- PA-7 (MIC) [2]: 4 µg/mL

Compound: C[C@@](CCn1ccc(-c2ccc(OCCC(O)CO)cc2)cc1=O)(C(=O)NO)S(C)(=O)=O (stereo partly drawn) [Example 366, (2R)-4-{4-[4-(3,4-dihydroxybutoxy)phenyl]-2-oxopyridin-1(2H)-yl}-N-hydroxy-2-methyl-2-(methylsulfonyl)butanamide]
- EC-1 (MIC) [1]: 16 µg/mL
- PA-7 (MIC) [2]: 16 µg/mL

Compound: CC(CCn1ccc(-c2ccccc2C#N)cc1=O)(C(=O)NO)S(C)(=O)=O (stereo not drawn) [Example 132, 4-[4-(2-cyanophenyl)-2-oxopyridin-1(2H)-yl]-N-hydroxy-2-methyl-2-(methylsulfonyl)butanamide]
- EC-1 (MIC) [1, 3]: > 64 µg/mL
- PA-7 (MIC) [2, 3]: > 64 µg/mL

Compound: COc1cc(-c2ccn(CCC(C)(C(=O)NO)S(C)(=O)=O)c(=O)c2)cc(OC)c1OC (stereo not drawn) [Example 212, N-hydroxy-2-methyl-2-(methylsulfonyl)-4-[2-oxo-4-(3,4,5-trimethoxyphenyl)pyridin-1(2H)-yl]butanamide]
- EC-1 (MIC) [1]: > 64 µg/mL
- PA-7 (MIC) [2]: > 64 µg/mL

Compound: C[C@@](CCn1ccc(-c2ccc(OC[C@H]3CC[C@@H](O)CC3)c(F)c2)cc1=O)(C(=O)NO)S(C)(=O)=O [Example 348, (2R)-4-[4-{3-fluoro-4-[(cis-4-hydroxycyclohexyl)methoxy]phenyl}-2-oxopyridin-1(2H)-yl]-N-hydroxy-2-methyl-2-(methylsulfonyl)butanamide]
- EC-1 (MIC) [1]: 0.25 µg/mL
- PA-7 (MIC) [2]: 1 µg/mL

Compound: Cc1cc(OCCCO)ccc1-c1ccn(CCC(C)(C(=O)NO)S(C)(=O)=O)c(=O)c1 (stereo not drawn) [Example 252, N-hydroxy-4-{4-[4-(3-hydroxypropoxy)-2-methylphenyl]-2-oxopyridin-1(2H)-yl}-2-methyl-2-(methylsulfonyl)butanamide]
- EC-1 (MIC) [1]: 16 µg/mL
- PA-7 (MIC) [2]: 16 µg/mL

Compound: C[C@@](CCn1ccc(-c2ccc(Oc3cc(Cl)ccn3)cc2)cc1=O)(C(=O)NO)S(C)(=O)=O [Example 428, (2R)-4-[4-{4-[(4-chloropyridin-2-yl)oxy]phenyl}-2-oxopyridin-1(2H)-yl]-N-hydroxy-2-methyl-2-(methylsulfonyl)butanamide]
- EC-1 (MIC) [1]: 0.125 µg/mL
- PA-7 (MIC) [2]: 1 µg/mL

Compound: CC(CCn1ccc(-c2ccc(OC(F)(F)F)cc2)cc1=O)(C(=O)NO)S(C)(=O)=O (stereo not drawn) [Example 145, N-hydroxy-2-methyl-2-(methylsulfonyl)-4-{2-oxo-4-[4-(trifluoromethoxy)phenyl]pyridin-1(2H)-yl}butanamide]
- EC-1 (MIC) [1, 3]: 1 µg/mL
- PA-7 (MIC) [2, 3]: 2 µg/mL

Compound: CC(CCn1ccc(-c2cc(Cl)cc(Cl)c2)cc1=O)(C(=O)NO)S(C)(=O)=O (stereo not drawn) [Example 216, 4-[4-(3,5-dichlorophenyl)-2-oxopyridin-1(2H)-yl]-N-hydroxy-2-methyl-2-(methylsulfonyl)butanamide]
- EC-1 (MIC) [1]: 4 µg/mL
- PA-7 (MIC) [2]: 8 µg/mL

Compound: Cc1ccc(-c2ccn(CCC(C)(C(=O)NO)S(C)(=O)=O)c(=O)c2)cc1N (stereo not drawn) [Example 115, 4-[4-(3-amino-4-methylphenyl)-2-oxopyridin-1(2H)-yl]-N-hydroxy-2-methyl-2-(methylsulfonyl)butanamide]
- EC-1 (MIC) [1, 3]: 64 µg/mL
- PA-7 (MIC) [2, 3]: 16 µg/mL

Compound: C[C@@](CCn1ccc(-c2ccc(Oc3ccccn3)cc2)cc1=O)(C(=O)NO)S(C)(=O)=O [Example 436, (2R)-N-hydroxy-2-methyl-2-(methylsulfonyl)-4-{2-oxo-4-[4-(pyridin-2-yloxy)phenyl]pyridin-1(2H)-yl}butanamide]
- EC-1 (MIC) [1]: 0.5 µg/mL
- PA-7 (MIC) [2]: 2 µg/mL
